Assay [1] deals with Plasma Kallikrein (Homo sapiens (Human), UniProt P03952). Briefly: Determination of related protease inhibition: Plasma Kallikrein (fluorogenic substrate at Km). Format: biochemical. As to conditions: 25° C., read-out: IC50 (human PKal). The procedure, abridged:
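The enzyme from human source is assayed in the presence of various test compound concentrations, with substrate held at its Km. Accumulating fluorescence is tracked for 5 min at 25 °C, and the concentration halving uninhibited activity is reported as IC50.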

In assay [2] the target is Human Factor XIIa (Homo sapiens (Human), UniProt P00748). Description: Determination of FXIIa inhibition (fluorogenic substrate H-DPro-Phe-Arg-AFC, IC50 assay). Format: biochemical. The conditions noted are these: substrate H-DPro-Phe-Arg-AFC at Km, 25° C.; class scale A-G. The procedure, abridged:
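Human FXIIa incubated at 25° C with fluorogenic substrate H-DPro-Phe-Arg-AFC at its Km concentration and varying compound concentrations. Fluorescence release monitored over 5 min at 25° C; linear rate expressed as % of uninhibited activity to derive IC50.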

Sequence of Human Factor XIIa (P00748 373-615): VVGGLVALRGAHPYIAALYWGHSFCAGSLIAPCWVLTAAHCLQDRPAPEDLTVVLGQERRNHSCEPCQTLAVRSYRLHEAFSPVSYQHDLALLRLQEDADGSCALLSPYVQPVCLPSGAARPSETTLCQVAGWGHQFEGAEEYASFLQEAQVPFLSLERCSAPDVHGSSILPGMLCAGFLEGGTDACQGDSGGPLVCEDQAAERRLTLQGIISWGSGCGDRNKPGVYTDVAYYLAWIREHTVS
Sequence of Plasma Kallikrein (P03952 391-638): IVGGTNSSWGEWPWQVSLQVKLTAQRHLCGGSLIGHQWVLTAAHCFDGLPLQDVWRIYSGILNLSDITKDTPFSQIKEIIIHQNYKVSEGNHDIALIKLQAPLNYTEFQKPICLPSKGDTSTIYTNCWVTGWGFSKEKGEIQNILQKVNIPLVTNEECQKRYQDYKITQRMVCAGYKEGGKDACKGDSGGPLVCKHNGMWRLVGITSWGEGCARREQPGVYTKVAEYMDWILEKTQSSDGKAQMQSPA
Sequence of Plasma Kallikrein (P03952 20-390 partner): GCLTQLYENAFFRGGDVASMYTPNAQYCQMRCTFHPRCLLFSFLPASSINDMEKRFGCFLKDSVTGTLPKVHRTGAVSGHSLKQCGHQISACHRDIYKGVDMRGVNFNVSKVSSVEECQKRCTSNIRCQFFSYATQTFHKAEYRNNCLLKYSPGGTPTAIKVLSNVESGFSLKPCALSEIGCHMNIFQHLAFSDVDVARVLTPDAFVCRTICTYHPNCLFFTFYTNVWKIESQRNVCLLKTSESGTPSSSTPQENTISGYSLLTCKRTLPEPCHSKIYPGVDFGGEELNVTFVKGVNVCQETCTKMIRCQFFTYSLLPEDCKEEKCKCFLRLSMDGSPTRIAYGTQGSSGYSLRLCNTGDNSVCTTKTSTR

One may read the IC50 as the concentration needed to halve the response being measured. For the molecule `Nc1nccc2c(NCc3ccc(NCCc4nccn4C(F)F)nc3)cccc12` [Example 1181, N5-((6-((2-(1-(difluoromethyl)-1H-imidazol-2-yl)ethyl)amino)pyridin-3-yl)methyl)isoquinoline-1,5-diamine], the results for the IC50 in assay [1] and in assay [2] were over 40 µM and 10 to 40 µM, respectively.
Take `Nc1ncc(Cl)c2cc(NCc3ccc(NCCc4nccn4C(F)F)nc3)ccc12` [Example 1182, 4-chloro-N6-((6-((2-(1-(difluoromethyl)-1H-imidazol-2-yl)ethyl)amino)pyridin-3-yl)methyl)isoquinoline-1,6-diamine]: the IC50 in assay [1] is over 40 µM; in assay [2], 10 to 40 µM.
Take `CN1CCC(CNc2ccc(CNc3ccc4cccnc4c3)cn2)CC1` [Example 1184, N-((6-(((1-methylpiperidin-4-yl)methyl)amino)pyridin-3-yl)methyl)quinolin-7-amine]: the IC50 was over 100 µM in assay [1] and 10 to 40 µM in assay [2].
For the molecule `Nc1ncc(Cl)c2cc(NCc3ccc(NCc4nccn4C(F)F)nc3)ccc12` [Example 1185], the values for the IC50 in assay [1] and in assay [2] were over 40 µM and 10 to 40 µM, respectively.
With `CN1CCC(CNc2ccc(CNc3ccc4cncc(Cl)c4c3)cn2)CC1` [Example 1188, 4-chloro-N-((6-(((1-methylpiperidin-4-yl)methyl)amino)pyridin-3-yl)methyl)isoquinolin-6-amine], the values for the IC50 in assay [1] and in assay [2] were over 100 µM and 40 to 100 µM, respectively.
For the molecule `CN1CCC(CNc2ccc(CNc3cnc4nccnc4c3)cn2)CC1` [Example 1189, N-((6-(((1-methylpiperidin-4-yl)methyl)amino)pyridin-3-yl)methyl)pyrido[2,3-b]pyrazin-7-amine], the IC50 was over 40 µM in assay [1] and 40 to 100 µM in assay [2].
In the case of `CN1CCC(CNc2ccc(CNc3ccc4c(N)ncc(Cl)c4c3)cn2)CC1` [Example 1193, 4-chloro-N6-((6-(((1-methylpiperidin-4-yl)methyl)amino)pyridin-3-yl)methyl)isoquinoline-1,6-diamine], the IC50 lay within 3 to 10 µM in assay [1] and 0.1 to 0.3 µM in assay [2].
With `CN1CCC(CNc2ccc(CNc3cccc4c(N)ncc(F)c34)cn2)CC1` [Example 1194, 4-fluoro-N5-((6-(((1-methylpiperidin-4-yl)methyl)amino)pyridin-3-yl)methyl)isoquinoline-1,5-diamine], the IC50 in assay [1] was over 40 µM; in assay [2], 3 to 10 µM.
`CN1CCC(CNc2ccc(CNc3ccc4c(N)ncc(F)c4c3)cn2)CC1` [Example 1195, 4-fluoro-N6-((6-(((1-methylpiperidin-4-yl)methyl)amino)pyridin-3-yl)methyl)isoquinoline-1,6-diamine]: the IC50 in assay [1] lay within 3 to 10 µM; in assay [2], 0.1 to 0.3 µM.
Take `CN1CCC(CNc2ccc(CNc3cc4ccnc(N)c4cn3)cn2)CC1` [Example 1196, N6-((6-(((1-methylpiperidin-4-yl)methyl)amino)pyridin-3-yl)methyl)-2,7-naphthyridine-1,6-diamine]: the IC50 in assay [1] is 3 to 10 µM; in assay [2], 1 to 3 µM.
Taken in the same sequence, the figures for `CN1CCC(CNc2ccc(CNc3ccc4cncc(N5CCCCC5)c4c3)cn2)CC1` [Example 1198, N-((6-(((1-methylpiperidin-4-yl)methyl)amino)pyridin-3-yl)methyl)-4-(piperidin-1-yl)isoquinolin-6-amine] were over 40 µM and 40 to 100 µM.
Take `CN1CCC(CNc2ccc(CNc3ccc4c[nH]c(=O)cc4c3)cn2)CC1` [Example 1201, 6-(((6-(((1-methylpiperidin-4-yl)methyl)amino)pyridin-3-yl)methyl)amino)isoquinolin-3(2H)-one]: the results for the IC50 in assay [1] and in assay [2] were over 40 µM and 40 to 100 µM, respectively.
Regarding `Cc1cnc2[nH]ccc2c1NCc1ccc(NCC2CCN(C)CC2)nc1` [Example 1205, 5-methyl-N-((6-(((1-methylpiperidin-4-yl)methyl)amino)pyridin-3-yl)methyl)-1H-pyrrolo[2,3-b]pyridin-4-amine], the IC50 in assay [1] was over 100 µM; in assay [2] it was 10 to 40 µM.
In the case of `CN1CCC(CNc2ccc(CNc3c(F)cnc4[nH]ccc34)cn2)CC1` [Example 1206, 5-fluoro-N-((6-(((1-methylpiperidin-4-yl)methyl)amino)pyridin-3-yl)methyl)-1H-pyrrolo[2,3-b]pyridin-4-amine], the IC50 is over 100 µM in assay [1] and 40 to 100 µM in assay [2].
Taken in the same sequence, the figures for `CN1CCC(CNc2ccc(CNc3cc(F)c4cnccc4c3)cn2)CC1` [Example 1207, 8-fluoro-N-((6-(((1-methylpiperidin-4-yl)methyl)amino)pyridin-3-yl)methyl)isoquinolin-6-amine] were over 100 µM and 40 to 100 µM.
In the same order, the values of `CN1CCC(CNc2ccc(CNc3cc(Cl)c4cnccc4c3)cn2)CC1` [Example 1208, 8-chloro-N-((6-(((1-methylpiperidin-4-yl)methyl)amino)pyridin-3-yl)methyl)isoquinolin-6-amine] are over 40 µM and 3 to 10 µM.
As to `CN1CCC(CNc2ccc(CNc3cc(CO)c4cnccc4c3)cn2)CC1` [Example 1211, (6-(((6-(((1-methylpiperidin-4-yl)methyl)amino)pyridin-3-yl)methyl)amino)isoquinolin-8-yl)methanol], the IC50 in assay [1] and in assay [2] was 10 to 40 µM each time.
Turning to `COc1ccc2c(NCc3ccc(NCC4CCN(C)CC4)nc3)ccnc2c1` [Example 1217, 7-methoxy-N-((6-(((1-methylpiperidin-4-yl)methyl)amino)pyridin-3-yl)methyl)quinolin-4-amine], the IC50 is over 40 µM in assay [1] and 40 to 100 µM in assay [2].
Regarding `CNc1cc(NCc2ccc(NCC3CCN(C)CC3)nc2)ccn1` [Example 1219, N2-Methyl-N4-((6-(((1-methylpiperidin-4-yl)methyl)amino)pyridin-3-yl)methyl)pyridine-2,4-diamine], the IC50 in assay [1] was over 100 µM; in assay [2], 3 to 10 µM.
`CN1CCC(CNc2ccc(CNc3nccc4[nH]ccc34)cn2)CC1` [Example 1223, N-((6-(((1-methylpiperidin-4-yl)methyl)amino)pyridin-3-yl)methyl)-1H-pyrrolo[3,2-c]pyridin-4-amine]: the IC50 in assay [1] was over 40 µM; in assay [2], 40 to 100 µM.
In the same order, the values of `Cc1c[nH]c2nccc(NCc3ccc(NCC4CCN(C)CC4)nc3)c12` [Example 1226, 3-methyl-N-((6-(((1-methylpiperidin-4-yl)methyl)amino)pyridin-3-yl)methyl)-1H-pyrrolo[2,3-b]pyridin-4-amine] are over 100 µM and 3 to 10 µM.
`Cc1cc2c(NCc3ccc(NCC4CCN(C)CC4)nc3)cncc2[nH]1` [Example 1232, 2-Methyl-N-((6-(((1-methylpiperidin-4-yl)methyl)amino)pyridin-3-yl)methyl)-1H-pyrrolo[2,3-c]pyridin-4-amine]: the IC50 in assay [1] was 10 to 40 µM; in assay [2], 0.3 to 1 µM.
In the same order, the values of `CN1CCC(CNc2ccc(CNc3cc(F)c4c(N)nccc4c3)cn2)CC1` [Example 1245, 8-fluoro-N6-((6-(((1-methylpiperidin-4-yl)methyl)amino)pyridin-3-yl)methyl)isoquinoline-1,6-diamine] are 3 to 10 µM and 3 to 10 µM.
Regarding `Cc1cc(NCc2ccc(NCC3CCN(C)CC3)nc2)c2cc[nH]c2n1` [Example 1246, 6-methyl-N-((6-(((1-methylpiperidin-4-yl)methyl)amino)pyridin-3-yl)methyl)-1H-pyrrolo[2,3-b]pyridin-4-amine], the results for the IC50 in assay [1] and in assay [2] were over 40 µM and 3 to 10 µM, respectively.
With `COC(=O)c1c[nH]c2nccc(NCc3ccc(NCC4CCN(C)CC4)nc3)c12` [Example 1248, methyl 4-(((6-(((1-methylpiperidin-4-yl)methyl)amino)pyridin-3-yl)methyl)amino)-1H-pyrrolo[2,3-b]pyridine-3-carboxylate], the IC50 is over 20 µM in assay [1] and 10 to 40 µM in assay [2].
For the molecule `Cc1cc2c(NCc3ccc(OCC4CCN(C)CC4)nc3)ccnc2[nH]1` [Example 1249, 2-methyl-N-((6-((1-methylpiperidin-4-yl)methoxy)pyridin-3-yl)methyl)-1H-pyrrolo[2,3-b]pyridin-4-amine], the IC50 in assay [1] is over 40 µM; in assay [2], 0.3 to 1 µM.
On to `CN1CCC(CNc2ccc(CNc3ccnc4[nH]c(C(N)=O)cc34)cn2)CC1` [Example 1252, 4-(((6-(((1-methylpiperidin-4-yl)methyl)amino)pyridin-3-yl)methyl)amino)-1H-pyrrolo[2,3-b]pyridine-2-carboxamide], for which the IC50 in assay [1] is over 40 µM; in assay [2], 10 to 40 µM.
In the same order, the values of `Cc1cc2c(NCc3ccc(NCC4CCN(C)CC4)nc3)ncnc2[nH]1` [Example 1254, 6-methyl-N-((6-(((1-methylpiperidin-4-yl)methyl)amino)pyridin-3-yl)methyl)-7H-pyrrolo[2,3-d]pyrimidin-4-amine] are over 40 µM and 10 to 40 µM.
Taken in the same sequence, the figures for `Cc1cnc2[nH]c(Cl)cc2c1NCc1ccc(NCC2CCN(C)CC2)nc1` [Example 1255, 2-chloro-5-methyl-N-((6-(((1-methylpiperidin-4-yl)methyl)amino)pyridin-3-yl)methyl)-1H-pyrrolo[2,3-b]pyridin-4-amine] were over 40 µM and 3 to 10 µM.
Taken in the same sequence, the figures for `CN1CCC(CNc2ccc(CNc3cc(C#N)cc4[nH]ccc34)cn2)CC1` [Example 1256] were over 40 µM and 10 to 40 µM.
`CN1CCC(CNc2ccc(CNc3ccncc3)cn2)CC1` [Example 1258, N-((1-methylpiperidin-4-yl)methyl)-5-((pyridin-4-ylamino)methyl)pyridin-2-amine]: the IC50 was over 40 µM in assay [1] and 10 to 40 µM in assay [2].

Source of the values: patent US20240059691A1 (KALVISTA PHARMACEUTICALS LIMITED, priority 2020, published 2024).
